According to patent US9670242B2, “Tetracyclic anthraquinone derivatives” (Tianjin Hemay Bio-Tech Co., Ltd, priority 2012, dated 2017):

Legend:
Type in all cases: cell-based, human
22Rv1 cells = assay: 22Rv1 cell growth inhibition test (SRB assay); conditions: growth inhibition at 222 nM, 73 h
Description: 22Rv1 Cell Growth Inhibition Test (SRB Assay)
Cell strains: 22Rv1 (human prostate cancer cell strains); SRB: 0.4% (w/v) working solution was formulated with 1% glacial acetic acid, reserved at 4° C.; antitumor compounds; DMSO.
(§1) II. Reagents and Consumable Materials
(§2) Culture medium: 90% RPMI-1640+10% FBS; Pancreatin (0.25% (w/v) solution was formulated with PBS, 0.53 mM of EDTA was added in the formulation); PBS; 96-well culture plate.
(§3) 1. A plate (10 cm) of cells in logarithmic growth phase that were normally cultured was collected;
(§4) 2. The culture solution was sucked out. The plate was washed with 5 mL of PBS once or twice;
(§5) 3. 1.5 mL of 0.25% pancreatin was added to the plate to infiltrate the cells;
(§6) 4. The pancreatin was sucked out. The culture plate was placed in an incubator. Digestion was carried out for about 3 min at 37° C.;
5. 4 mL of complete culture solution was added to the culture plate to stop the digestion. The cells were carefully scoured with micropipette (1 ml) to give a uniform single cell suspension. The suspension was implanted into a 96-well cell culture plate by 7000 cells/100 μL per well. The culture plate was incubated overnight under 5% CO2 at 37° C. In day 2, 100 μL of culture solution comprising a compound was added in each well. The plate was further incubated for 73 h under 5% CO2 at 37° C.;
(§7) 6. The culture solution was sucked out. 100 uL of TCA fixed cells which were diluted to 10% were added to each well. The plate was kept in a refrigerator for 1 h at 4° C.
(§8) 7. TCA stationary liquid was sucked out. Each well was washed with 150 μL of ddH2O five times;
(§9) 8. After the stationary liquid was cleansed, the plate was dried in the air at the room temperature;
(§10) 9. 60 μL of SRB staining solution was added in each well. The well was stained for 15 min at the room temperature;
(§11) 10. The SRB staining solution was sucked out. Each well was washed with 150 μL of 1% glacial acetic acid five times;
(§12) 11. After the SRB staining solution was cleansed, the plate was dried in the air at the room temperature;
(§13) 12. 100 μL of 10 mM Tris was added in each well. The plate was vibrated to dissolve out SRB;
(§14) 13. OD values were determined at 570 nM.
(§15) IV. Results and Treatments
(§16) 1. Calculation of Relative Inhibition Ratio The inhibition ratio of a compound on cell growth=(PC−n)/(PC−NC)×100%
(§17) PC: OD values of cells after normal growth in control wells without a compound;
(§18) n: OD values of cells after growth in test wells with a compound;
(§19) NC: Background OD values of blank wells without a compound and cells.

SK-OV-3 cells = assay: SK-OV-3 cell growth inhibition test (MTT assay); conditions: growth inhibition at 667 nM, 69 h
Description: SK-OV-3 Cell Growth Inhibition Test (MTT Assay)
Cell strains: SK-OV-3 (human ovarian cancer cell strains); MTT; antitumor compounds; DMSO.
as §1
Culture medium: 90% McCoy's 5A+10% FBS; Pancreatin (0.25% (w/v) solution was formulated with PBS, 0.53 mM of EDTA was added in the formulation); PBS; 96-well culture plate.
as §3, §4
(§20) 3. PBS was sucked out. 1.5 mL of 0.25% pancreatin was added to infiltrate the cells;
4. The pancreatin was sucked out. The culture plate was placed in an incubator. Digestion was carried out for about 5 min at 37° C.;
5. 4.5 mL of complete culture solution was added to the culture plate to stop the digestion. The cells were carefully scoured with micropipette (1 ml) to give a uniform cell suspension. The suspension was implanted into a 96-well cell culture disc by 4000 cells/100 μL per well. The culture plate was incubated overnight under 5% CO2 at 37° C. In day 2, 100 μL of culture solution comprising a compound was added in each well. The plate was further incubated for 69 h under 5% CO2 at 37° C.;
(§21) 6. The culture solution was sucked out;
(§22) 7. 100 μL of serum-free culture solution containing 0.5 mg/mL MTT was added in each well. The plate was incubated for 3 h;
(§23) 8. The culture solution was carefully sucked out;
9. 100 μL of DMSO was added in each well and vibrated to dissolve;
(§24) 10. OD values were determined at 490 nM.
as §15, §16, §17, §18, §19

BxPc-3 cells = assay: BxPc-3 cell growth inhibition test (MTT assay); conditions: growth inhibition at 2000 nM, 70 h
Description: BxPc-3 Cell Growth Inhibition Test (MTT Assay)
Cell strains: BxPC-3 (human pancreatic cancer cell strains); MTT; antitumor compounds; DMSO.
as §1, §2, §3, §4, §20
4. The culture plate was placed in an incubator. Digestion was carried out for about 8 min at 37° C.;
5. 4.5 mL of complete culture solution was added to the culture plate to stop the digestion. The cells were carefully scoured with micropipette (1 ml) to give a uniform cell suspension. The suspension was implanted into a 96-well cell culture disc by 5000 cells/100 μL per well. The culture plate was incubated overnight under 5% CO2 at 37° C. In day 2, 100 μL of culture solution comprising a compound was added in each well. The plate was further incubated for 70 h under 5% CO2 at 37° C.;
as §21, §22, §23
(§25) 9. 100 μL of DMSO was added into each well and vibrated to dissolve;
as §24, §15, §16, §17, §18, §19

MDA-MB-453 cells = assay: MDA-MB-453 cell growth inhibition test (SRB assay); conditions: growth inhibition at 2000 nM, 69.5 h
Description: MDA-MB-453 Cell Growth Inhibition Test (SRB Assay)
Cell strains: MDA-MB-453 (human breast cancer cell strains); SRB: 0.4% (w/v) working solution was formulated with 1% glacial acetic acid, reserved at 4° C.; antitumor compounds; DMSO.
as §1
Culture medium: 90% L15+10% FBS; pancreatin (0.25% (w/v) solution was formulated with PBS, 0.53 mM of EDTA was added in the formulation); PBS; 96-well culture plate.
as §3, §4, §5, §6
5. 4 mL of complete culture solution was added to the culture plate to stop the digestion. The cells were carefully scoured with micropipette (1 ml) to give a uniform single cell suspension. The suspension was implanted into a 96-well cell culture plate by 7000 cells/100 μL per well. The culture plate was incubated overnight under 5% CO2 at 37° C. In day 2, 100 μL of culture solution comprising a compound was added in each well.
The plate was further incubated for 69.5 h under 5% CO2 at 37° C.;
as §7, §8, §9, §10, §11, §12, §13, §14, §15, §16, §17, §18, §19

NCI-H446 cells = assay: NCI-H446 cell growth inhibition test (MTT assay); conditions: growth inhibition at 222 nM, 70 h
Description: NCI-H446 Cell Growth Inhibition Test (MTT Assay)
Cell strains: NCI-H446 (human small cell lung cancer cell strains); MTT; antitumor compounds; DMSO.
as §1, §2, §3, §4, §20
4. The culture plate was placed in an incubator. Digestion was carried out for about 3 min at 37° C.;
5. 3 mL of complete culture solution was added to the culture plate to stop the digestion. The cells were carefully scoured with micropipette (1 ml) to give a uniform cell suspension. The suspension was implanted into a 96-well cell culture disc by 4000 cells/100 μL per well. The culture plate was incubated overnight under 5% CO2 at 37° C. In day 2, 100 μL of culture solution comprising a compound was added in each well. The plate was further incubated for 70 h under 5% CO2 at 37° C.;
as §21, §22, §23, §25, §24, §15, §16, §17, §18, §19

SMILES	Inhibition Ratio (%) (22Rv1 cells)	Inhibition Ratio (%) (SK-OV-3 cells)	Inhibition Ratio (%) (BxPc-3 cells)	Inhibition Ratio (%) (MDA-MB-453 cells)	Inhibition Ratio (%) (NCI-H446 cells)
COc1cccc2c1C(=O)c1c(O)c3c(c(O)c1C2=O)CC(O)(C(=O)COC(=O)CCC(=O)NCc1cccnc1)CC3OC1CC(n2cccc2)C(O)C(C)O1 (stereo not drawn) [Example 28]	63.1	66.2	84.7	81.9	65.8
COc1cccc2c1C(=O)c1c(O)c3c(c(O)c1C2=O)CC(O)(C(=O)COC(=O)CCC(=O)Nc1ccc(N2CCOCC2)nc1)CC3OC1CC(n2cccc2)C(O)C(C)O1 (stereo not drawn) [Example 20]	60.9	62.6	84.1	82.4	68
COc1cccc2c1C(=O)c1c(O)c3c(c(O)c1C2=O)CC(O)(C(=O)COC(=O)CCCC(=O)Nc1ccc(CN2CCOCC2)cc1)CC3OC1CC(n2cccc2)C(O)C(C)O1 (stereo not drawn) [Example 3]	61.9	62.5	81.2	73.9	60.8
COc1cccc2c1C(=O)c1c(O)c3c(c(O)c1C2=O)CC(O)(C(=O)COC(=O)CCC(=O)N1CCN(CCO)CC1)CC3OC1CC(n2cccc2)C(O)C(C)O1 (stereo not drawn) [Example 8]	56.8	60	82.6	75.3	59.5
COc1cccc2c1C(=O)c1c(O)c3c(c(O)c1C2=O)CC(O)(C(=O)COC(=O)CCC(=O)NS(C)(=O)=O)CC3OC1CC(n2cccc2)C(O)C(C)O1 (stereo not drawn) [Example 94]	60.7	71.4	84.9	75.8	48.4
COc1cccc2c1C(=O)c1c(O)c3c(c(O)c1C2=O)CC(O)(C(=O)COC(=O)CCC(=O)NCCO)CC3OC1CC(n2cccc2)C(O)C(C)O1 (stereo not drawn) [Example 60]	52.9	58.9	83.4	76.3	52.5
COc1cccc2c1C(=O)c1c(O)c3c(c(O)c1C2=O)CC(O)(C(=O)COC(=O)CCC(=O)NCc1ccccn1)CC3OC1CC(n2cccc2)C(O)C(C)O1 (stereo not drawn) [Example 30]	62.3	59.9	85.2	79.9	61
COc1cccc2c1C(=O)c1c(O)c3c(c(O)c1C2=O)CC(O)(C(=O)COC(=O)CCC(=O)NS(=O)(=O)c1ccccc1)CC3OC1CC(n2cccc2)C(O)C(C)O1 (stereo not drawn) [Example 95]	51.3	66.3	80.6	68.2	–
COc1cccc2c1C(=O)c1c(O)c3c(c(O)c1C2=O)CC(O)(C(=O)COC(=O)CCC(=O)N(CCO)CCO)CC3OC1CC(n2cccc2)C(O)C(C)O1 (stereo not drawn) [Example 64]	54.8	65.9	83.7	73.5	51.6
COc1cccc2c1C(=O)c1c(O)c3c(c(O)c1C2=O)CC(O)(C(=O)COC(=O)CCCC(=O)NCCc1ccccn1)CC3OC1CC(n2cccc2)C(O)C(C)O1 (stereo not drawn) [Example 35]	58.5	57.8	81.3	77.1	57.2
COc1cccc2c1C(=O)c1c(O)c3c(c(O)c1C2=O)CC(O)(C(=O)COC(=O)CCC(N)=O)CC3OC1CC(n2cccc2)C(O)C(C)O1 (stereo not drawn) [Example 66]	59	66.5	83.1	73.9	56.2
COc1cccc2c1C(=O)c1c(O)c3c(c(O)c1C2=O)CC(O)(C(=O)COC(=O)CCC(=O)NCCCN1CCCC1)CC3OC1CC(n2cccc2)C(O)C(C)O1 (stereo not drawn) [Example 18]	–	47.4	70.7	–	–
COc1cccc2c1C(=O)c1c(O)c3c(c(O)c1C2=O)CC(O)(C(=O)COC(=O)CCC(=O)NN1CCN(C)CC1)CC3OC1CC(n2cccc2)C(O)C(C)O1 (stereo not drawn) [Example 14]	52.1	53.6	81.8	74.4	–
